Results taken from patent US20140162991A1, “TESTOSTERONE-ANASTROZOLE (T + A) C[…] IN THE NEO-ADJUVANT, LOCAL AND SYSTEMIC THERAPY OF NEWLY DIAGNOSED, […] BREAST CANCER” (priority 2012, published 2014).

Test: adverse effects and systemic symptoms in treated patients
Details: pharmacologic doses of testosterone

## C[C@]12CC[C@H]3[C@@H](CCC4=CC(=O)CC[C@@]43C)[C@@H]1CC[C@@H]2O [testosterone]
  adverse events: not associated with adverse events
applicant's patients
  androgenic side effect: slight increase in facial hair
